# The supplement of paper PMC10307832
# Experiments:
# Assay in all cases: relative viability (nuclei count vs DMSO), 5 days (fraction); higher = more cells survive
# H3255 = system: H3255
# Outline: (§1)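 Each reported value is a median over duplicate plates. It expresses relative viability: treated-well nuclei count divided by vehicle-well nuclei count. Lung cancer cell lines in 1536-well plates were dosed by pin tool a day after seeding, alone with one drug or with a fixed anchor-drug dose plus five library-drug doses (not always all listed) in √10 steps, and nuclei were counted after 5 days.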
# RERF-LC-KJ = system: RERF-LC-KJ
# Outline: as §1
# HCC-44 = system: HCC-44
# Outline: as §1
# NCI-H520 = system: NCI-H520
# Outline: as §1
# NCI-H2085 = system: NCI-H2085
# Outline: as §1
# NCI-H441 = system: NCI-H441
# Outline: as §1
# NCI-H1993 = system: NCI-H1993
# Outline: as §1
# PC-14 = system: PC-14
# Outline: as §1
# LOU-NH91 = system: LOU-NH91
# Outline: as §1
# 201T = system: 201T
# Outline: as §1
# NCI-H2405 = system: NCI-H2405
# Outline: as §1
# NCI-H2347 = system: NCI-H2347
# Outline: as §1
# NCI-H647 = system: NCI-H647
# Outline: as §1
# NCI-H3122 = system: NCI-H3122
# Outline: as §1
# NCI-H2170 = system: NCI-H2170
# Outline: as §1
# NCI-H1563 = system: NCI-H1563
# Outline: as §1
# NCI-H2023 = system: NCI-H2023
# Outline: as §1
# NCI-H1734 = system: NCI-H1734
# Outline: as §1
# EPLC-272H = system: EPLC-272H
# Outline: as §1
# COR-L23 = system: COR-L23
# Outline: as §1
# NCI-H1650 = system: NCI-H1650
# Outline: as §1
# NCI-H1793 = system: NCI-H1793
# Outline: as §1
smiles,measurement,setting,value
O=C(O)c1ccc(-c2c[nH]c3ncc(-c4ccccc4)cc23)cc1C1CCCC1 + CS(=O)(=O)N1CCN(Cc2cc3nc(-c4cccc5[nH]ncc45)nc(N4CCOCC4)c3s2)CC1 [Pictilisib] (partner 1 µM),relative viability,H3255; first compound 0.04 µM,0.502
same,relative viability,H3255; first compound 0.1265 µM,0.529
same,relative viability,H3255; first compound 0.4 µM,0.441
same,relative viability,H3255; first compound 1.265 µM,0.462
same,relative viability,RERF-LC-KJ; first compound 0.04 µM,0.487
same,relative viability,RERF-LC-KJ; first compound 0.1265 µM,0.594
same,relative viability,RERF-LC-KJ; first compound 0.4 µM,0.503
same,relative viability,RERF-LC-KJ; first compound 1.265 µM,0.501
same,relative viability,HCC-44; first compound 0.04 µM,0.697
same,relative viability,HCC-44; first compound 0.1265 µM,0.676
same,relative viability,HCC-44; first compound 0.4 µM,0.668
same,relative viability,HCC-44; first compound 1.265 µM,0.56
same,relative viability,NCI-H520; first compound 0.04 µM,0.288
same,relative viability,NCI-H520; first compound 0.1265 µM,0.268
same,relative viability,NCI-H520; first compound 0.4 µM,0.299
same,relative viability,NCI-H520; first compound 1.265 µM,0.262
same,relative viability,NCI-H2085; first compound 0.04 µM,0.431
same,relative viability,NCI-H2085; first compound 0.1265 µM,0.427
same,relative viability,NCI-H2085; first compound 0.4 µM,0.536
same,relative viability,NCI-H2085; first compound 1.265 µM,0.568
same,relative viability,NCI-H441; first compound 0.04 µM,0.489
same,relative viability,NCI-H441; first compound 0.1265 µM,0.517
same,relative viability,NCI-H441; first compound 0.4 µM,0.469
same,relative viability,NCI-H441; first compound 1.265 µM,0.338
same,relative viability,NCI-H1993; first compound 0.04 µM,0.823
same,relative viability,NCI-H1993; first compound 0.4 µM,0.742
same,relative viability,NCI-H1993; first compound 1.265 µM,0.789
same,relative viability,PC-14; first compound 0.04 µM,0.765
same,relative viability,PC-14; first compound 0.1265 µM,0.947
same,relative viability,PC-14; first compound 0.4 µM,0.713
same,relative viability,PC-14; first compound 1.265 µM,0.801
same,relative viability,LOU-NH91; first compound 0.04 µM,0.513
same,relative viability,LOU-NH91; first compound 0.1265 µM,0.517
same,relative viability,LOU-NH91; first compound 0.4 µM,0.512
same,relative viability,LOU-NH91; first compound 1.265 µM,0.52
same,relative viability,201T; first compound 0.04 µM,0.695
same,relative viability,201T; first compound 0.1265 µM,0.619
same,relative viability,201T; first compound 0.4 µM,0.608
same,relative viability,201T; first compound 1.265 µM,0.656
same,relative viability,NCI-H2405; first compound 0.04 µM,0.458
same,relative viability,NCI-H2405; first compound 0.1265 µM,0.543
same,relative viability,NCI-H2405; first compound 0.4 µM,0.383
same,relative viability,NCI-H2405; first compound 1.265 µM,0.408
same,relative viability,NCI-H2347; first compound 0.04 µM,0.622
same,relative viability,NCI-H2347; first compound 0.1265 µM,0.789
same,relative viability,NCI-H2347; first compound 0.4 µM,0.621
same,relative viability,NCI-H2347; first compound 1.265 µM,0.75
same,relative viability,NCI-H647; first compound 0.04 µM,0.418
same,relative viability,NCI-H647; first compound 0.1265 µM,0.38
same,relative viability,NCI-H647; first compound 0.4 µM,0.478
same,relative viability,NCI-H647; first compound 1.265 µM,0.344
same,relative viability,NCI-H3122; first compound 0.04 µM,0.565
same,relative viability,NCI-H3122; first compound 0.1265 µM,0.683
same,relative viability,NCI-H3122; first compound 0.4 µM,0.619
same,relative viability,NCI-H3122; first compound 1.265 µM,0.574
same,relative viability,NCI-H2170; first compound 0.04 µM,0.386
same,relative viability,NCI-H2170; first compound 0.1265 µM,0.326
same,relative viability,NCI-H2170; first compound 0.4 µM,0.294
same,relative viability,NCI-H2170; first compound 1.265 µM,0.211
same,relative viability,NCI-H1563; first compound 0.04 µM,0.604
same,relative viability,NCI-H1563; first compound 0.1265 µM,0.658
same,relative viability,NCI-H1563; first compound 0.4 µM,0.65
same,relative viability,NCI-H1563; first compound 1.265 µM,0.742
same,relative viability,NCI-H2023; first compound 0.04 µM,0.249
same,relative viability,NCI-H2023; first compound 0.1265 µM,0.302
same,relative viability,NCI-H2023; first compound 0.4 µM,0.228
same,relative viability,NCI-H2023; first compound 1.265 µM,0.224
same,relative viability,NCI-H1734; first compound 0.04 µM,0.429
same,relative viability,NCI-H1734; first compound 0.1265 µM,0.556
same,relative viability,NCI-H1734; first compound 0.4 µM,0.445
same,relative viability,NCI-H1734; first compound 1.265 µM,0.419
same,relative viability,EPLC-272H; first compound 0.04 µM,0.381
same,relative viability,EPLC-272H; first compound 0.1265 µM,0.318
same,relative viability,EPLC-272H; first compound 0.4 µM,0.266
same,relative viability,EPLC-272H; first compound 1.265 µM,0.342
same,relative viability,COR-L23; first compound 0.04 µM,0.775
same,relative viability,COR-L23; first compound 0.1265 µM,0.9
same,relative viability,COR-L23; first compound 0.4 µM,0.798
same,relative viability,COR-L23; first compound 1.265 µM,0.425
same,relative viability,NCI-H1650; first compound 0.04 µM,0.585
same,relative viability,NCI-H1650; first compound 0.1265 µM,0.585
same,relative viability,NCI-H1650; first compound 0.4 µM,0.556
same,relative viability,NCI-H1650; first compound 1.265 µM,0.381
same,relative viability,NCI-H1793; first compound 0.04 µM,0.387
same,relative viability,NCI-H1793; first compound 0.1265 µM,0.43
same,relative viability,NCI-H1793; first compound 0.4 µM,0.308
same,relative viability,NCI-H1793; first compound 1.265 µM,0.336
